# Measurements: patent publication US20070197629A1, “Indole derivative and application thereof” (priority 2004, published 2007)
# Where two headings read alike, the source gives them in different places.
# How the values were obtained:
# osteoblasts [1] = assay: Assay of influences on osteoblasts: alkaline phosphatase (ALP) activity in cultured goldfish scales; format: cell-based; conditions: for ALP activity, amount of paranitrophenol produced: scales cultured at 15° C. for 6 hours, control 6.00-6.17 (per table)
# Description: In accordance with the method described in N. Suzuki and A. Hattori, J. Pineal Res., 33, 253-258, 2002, influences of an indole derivative on bone cells were inspected. A female goldfish (body weight: about 30 g) was put under anesthesia with MS222 (ethyl 3-aminobenzoate, methane sulfonic acid salt) (Aldrich), and a desired number of scales were peeled off. The scales were washed twice in Eagle's minimum essential medium (ICN Biomedicals Inc.) comprising 1% antibiotics (a mixture of penicillin and streptomycin). Medium of the same type was introduced into each well of a 24-well plate in amounts of 1 ml, several scales were introduced to each well (8 scales in general), and 10^−4, 10^−6, and 10^−8 M indole derivatives were applied to separate wells. Subsequently, the scales were cultured at 15° C. for 6 hours. Also, a group to which no indole derivative had been added was prepared (a control group), and influences thereof on osteoclasts and osteoblasts were compared. Two control groups, i.e., a group for inspecting osteoclasts and a group for inspecting osteoblasts, were provided. Specifically, a total of 8 wells were provided for the control and 10^−4, 10^−6, and 10^−8 M indole derivatives (2 wells for each thereof). Accordingly, 3 types of indole derivatives can be inspected with the use of a 24-well plate. After the culture, medium was removed, 0.05 M cacodylate buffer (pH 7.4) containing 10% formalin was added, and the scales were immobilized. The scales were stored in 0.05 M cacodylate buffer at 4° C. until the measurement of enzyme activity was initiated. • (2) Assay of Influences Imposed on Osteoblasts, i.e., Assay of Alkaline Phosphatase (ALP) Activity The immobilized scales were removed from the plate, and the weights thereof were measured. Thereafter, the scales were introduced into a 96-well microplate, 200 μl of 100 mM tris-HCl buffer (pH 9.5) comprising 10 mM paranitrophenol phosphate (substrate), 1 mM magnesium chloride, and 0.1 mM zinc chloride was introduced into each well, the reaction was allowed to proceed at 25° C. for 1 hour, and an aqueous solution of 2N sodium hydroxide (50 μl) was added thereto in order to terminate the reaction. Thereafter, 150 μl of the solution after the reaction was transferred to the other microplate, and the amount of pNP generated by ALP was measured using a spectrophotometer (405 nm) to determine the activity.
# osteoclasts [2] = assay: Assay of influences on osteoclasts: tartaric acid-resistant acid phosphatase (TRAP) activity in cultured goldfish scales; format: cell-based; conditions: for TRAP activity, amount of paranitrophenol produced: scales cultured at 15° C. for 6 hours, control 3.43 ± 0.04
# Description: In accordance with the method described in N. Suzuki and A. Hattori, J. Pineal Res., 33, 253-258, 2002, influences of an indole derivative on bone cells were inspected.
# A female goldfish (body weight: about 30 g) was put under anesthesia with MS222 (ethyl 3-aminobenzoate, methane sulfonic acid salt) (Aldrich), and a desired number of scales were peeled off. The scales were washed twice in Eagle's minimum essential medium (ICN Biomedicals Inc.) comprising 1% antibiotics (a mixture of penicillin and streptomycin). Medium of the same type was introduced into each well of a 24-well plate in amounts of 1 ml, several scales were introduced to each well (8 scales in general), and 10^−4, 10^−6, and 10^−8 M indole derivatives were applied to separate wells. Subsequently, the scales were cultured at 15° C. for 6 hours. Also, a group to which no indole derivative had been added was prepared (a control group), and influences thereof on osteoclasts and osteoblasts were compared. Two control groups, i.e., a group for inspecting osteoclasts and a group for inspecting osteoblasts, were provided. Specifically, a total of 8 wells were provided for the control and 10^−4, 10^−6, and 10^−8 M indole derivatives (2 wells for each thereof). Accordingly, 3 types of indole derivatives can be inspected with the use of a 24-well plate.
# After the culture, medium was removed, 0.05 M cacodylate buffer (pH 7.4) containing 10% formalin was added, and the scales were immobilized. The scales were stored in 0.05 M cacodylate buffer at 4° C. until the measurement of enzyme activity was initiated.
# 2-Bromomelatonin (a compound represented by formula (I) wherein X represents a bromine atom; R^1 represents a hydrogen atom; R^2 represents methyl; R^3, R^5 and R^6 each represent a hydrogen atom; and R^4 represents methyl), which was subjected to the test, was a known compound, and it was synthesized by the method described in M. Somei, Y. Fukui, M. Hasegawa, N. Oshikiri, and T. Hayashi, Heterocycles, 53, 1725-1736, 2000. • (1) Assay of Influences Imposed on Osteoclasts, i.e., Assay of Tartaric Acid-Resistant Acid Phosphatase (TRAP) Activity
# The immobilized scales were removed from the plate, and the weights thereof were measured. Thereafter, the scales were introduced into a 96-well microplate, 200 μl of 100 mM acetate buffer containing 20 mM tartaric acid and 10 mM paranitrophenol phosphate (substrate) was introduced to each well, reaction was allowed to proceed at 25° C. for 1 hour, and an aqueous solution of 2N sodium hydroxide (50 μl) was then added in order to terminate the reaction. The solution after the reaction (150 μl) was transferred to the other microplate, and the amount of paranitrophenol (pNP) generated by TRAP was measured using a spectrophotometer (405 nm). The osteoclast activity was indicated in terms of the amount of paranitrophenol phosphate decomposed and that of pNP produced within 1 hour per mg of the scales.
# osteoclasts [3] = conditions: reported in N. Suzuki and A. Hattori, J. Pineal Res., 33, 253-258, 2002; cited from earlier work
# osteoblasts [4] = conditions: reported in N. Suzuki and A. Hattori, J. Pineal Res., 33, 253-258, 2002; cited from earlier work
SMILES,melting point [°C],"ALP activity, amount of paranitrophenol produced (osteoblasts [1]; indole derivative 10^−4 M)","ALP activity, amount of paranitrophenol produced (osteoblasts [1]; indole derivative 10^−6 M)","ALP activity, amount of paranitrophenol produced (osteoblasts [1]; indole derivative 10^−8 M)","TRAP activity, amount of paranitrophenol produced (osteoclasts [2]; indole derivative 10^−4 M)","TRAP activity, amount of paranitrophenol produced (osteoclasts [2]; indole derivative 10^−6 M)","TRAP activity, amount of paranitrophenol produced (osteoclasts [2]; indole derivative 10^−8 M)","Influence on osteoblasts (in words) (osteoblasts [1]; summary of FIG. 2A, 2B, Tables 2A to 2G)",Influence on osteoclasts (in words) (osteoclasts [3]),"Influence on osteoclasts (in words) (osteoclasts [2]; summary of FIG. 1A, 1B, Table 1)",Influence on osteoblasts (in words) (osteoblasts [4])
"COc1c(Br)cc2c(c1Br)c(CCNC(C)=O)c(Br)n2Cc1ccccc1 [1-Benzyl-2,4,6-tribromomelatonin, N-acetyl-1-benzyl-2,4,6-tribromo-5-methoxyindole-3-ethanamine]",218 to 219,7.77 ± 0.37 nmol/mg of scales/hr,7.92 ± 0.55 nmol/mg of scales/hr,8.44 ± 1.00 nmol/mg of scales/hr,2.59 ± 0.24 nmol/mg of scales/hr,2.83 ± 0.20 nmol/mg of scales/hr,2.85 ± 0.20 nmol/mg of scales/hr,,,,
"C=CCn1c(Br)c(CCNC(C)=O)c2c(Br)c(OC)c(Br)cc21 [1-Allyl-2,4,6-tribromomelatonin, N-acetyl-1-allyl-2,4,6-tribromo-5-methoxyindole-3-ethanamine]",142 to 143,6.44 ± 0.44 nmol/mg of scales/hr,6.79 ± 0.63 nmol/mg of scales/hr,8.30 ± 0.68 nmol/mg of scales/hr,2.87 ± 0.10 nmol/mg of scales/hr,2.89 ± 0.12 nmol/mg of scales/hr,2.99 ± 0.13 nmol/mg of scales/hr,,,,
"COc1c(Br)cc2c(c1Br)c(CCNC(C)=O)c(Br)n2S(=O)(=O)c1ccc(C)cc1 [2,4,6-tribromo-1-tosyl-melatonin, N-acetyl-2,4,6-tribromo-5-methoxy 1-tosylindole-3-ethanamine]",215 to 216,,,,,,,,,,
"COc1c(Br)cc2[nH]c(Br)c(CCNC(C)=O)c2c1Br [2,4,6-Tribromomelatonin, N-acetyl-2,4,6-tribromo-5-methoxyindole-3-ethanamine]",,6.00 ± 0.38 nmol/mg of scales/hr,6.61 ± 0.38 nmol/mg of scales/hr,7.58 ± 0.70 nmol/mg of scales/hr,2.93 ± 0.18 nmol/mg of scales/hr,2.87 ± 0.13 nmol/mg of scales/hr,2.88 ± 0.08 nmol/mg of scales/hr,,,,
"COc1ccc2[nH]cc(CCNC(C)=O)c2c1 [Melatonin, N-acetyl-5-methoxytryptamine, reference compound]",,5.19 ± 0.36 nmol/mg of scales/hr,5.42 ± 0.25 nmol/mg of scales/hr,5.45 ± 0.27 nmol/mg of scales/hr,2.67 ± 0.11 nmol/mg of scales/hr,2.69 ± 0.15 nmol/mg of scales/hr,2.91 ± 0.13 nmol/mg of scales/hr,suppressively acts,act suppressively,suppressively acts,act suppressively
"C#CCn1c(Br)c(CCNC(C)=O)c2c(Br)c(OC)c(Br)cc21 [2,4,6-Tribromo-1-propargylmelatonin, N-acetyl-2,4,6-tribromo-5-methoxy-1-propargylindole-3-ethanamine]",,7.55 ± 0.76 nmol/mg of scales/hr,8.66 ± 0.47 nmol/mg of scales/hr,7.07 ± 0.75 nmol/mg of scales/hr,2.78 ± 0.13 nmol/mg of scales/hr,2.82 ± 0.15 nmol/mg of scales/hr,2.78 ± 0.15 nmol/mg of scales/hr,,,,
"COc1c(Br)c(Br)c2[nH]c(Br)c(CCNC(C)=O)c2c1Br [2,4,6,7-Tetrabromomelatonin, 2,4,6,7-tetrabromomelatonin]",,6.12 ± 0.41 nmol/mg of scales/hr,6.12 ± 0.50 nmol/mg of scales/hr,7.90 ± 0.73 nmol/mg of scales/hr,2.71 ± 0.17 nmol/mg of scales/hr,2.83 ± 0.16 nmol/mg of scales/hr,3.19 ± 0.14 nmol/mg of scales/hr,,,,
COc1ccc2[nH]c(Br)c(CCNC(C)=O)c2c1 [2-Bromomelatonin],,5.72 ± 0.47 nmol/mg of scales/hr,6.03 ± 0.66 nmol/mg of scales/hr,7.41 ± 0.35 nmol/mg of scales/hr,2.83 ± 0.23 nmol/mg of scales/hr,2.62 ± 0.17 nmol/mg of scales/hr,3.02 ± 0.23 nmol/mg of scales/hr,,,,
